Laboratory results from ChEMBL document CHEMBL2069169, “Novel triazines as potent and selective phosphodiesterase 10A inhibitors” (Bioorg Med Chem Lett, 2012).
pIC50: −log10 of the molar value. Active and inactive are the calls of the source. No cut-off for these calls is given here.

Assays:
[1] = Oral bioavailability in rat at 10 mg/kg; format: ADME, organism-based; conditions: in vivo
[2] = AUC in rat plasma at 2 mg/kg, iv and 10 mg/kg, po; format: ADME, organism-based
Rattus norvegicus [3] = experiment: Antipsychotic activity in po dosed rat assessed as reduction of MK801-induced hyperactivity; format: functional; set-up: Activity: scale not given: the % may be the effect or the level left
[4] = AUC in rat brain at 2 mg/kg, iv and 10 mg/kg, po; format: ADME, organism-based
Phosphodiesterase 4 = Phosphodiesterase 4 (Homo sapiens, UniProt P27815+Q08499+Q07343+Q08493); experiment: Inhibition of PDE4; format: protein assay
[5] = Clearance in rat at 2 mg/kg, iv and 10 mg/kg, po; format: ADME, organism-based; conditions: in vivo
Rattus norvegicus [6] = experiment: Antipsychotic activity in Sprague-Dawley rat assessed as reduction of conditioned avoidance response at 0.17 mg/kg, po; format: functional, organism-based; set-up: dose 0.17 mg/kg
Rattus norvegicus [7] = experiment: Antipsychotic activity in po dosed Sprague-Dawley rat assessed as reduction of conditioned avoidance response; format: functional
Phosphodiesterase 6 = experiment: Inhibition of PDE6; format: protein assay, Homo sapiens
[8] = Volume of distribution at steady state in rat at 2 mg/kg, iv and 10 mg/kg, po; format: ADME, organism-based; conditions: in vivo, read-out: Vdss
Rattus norvegicus [9] = experiment: Antipsychotic activity in po dosed rat assessed as reduction of MK801-induced stereotyped sniffing; format: functional; set-up: Activity: scale not given: the % may be the effect or the level left
[10] = molecular target: cGMP-specific 3',5'-cyclic phosphodiesterase (Canis lupus familiaris, UniProt O77746); experiment: Inhibition of PDE5; set-up: species or system Homo sapiens
Phosphodiesterase 3 = Phosphodiesterase 3 (Homo sapiens, UniProt Q14432+Q13370); experiment: Inhibition of PDE3; format: protein assay
[11] = Elimination half life in rat at 2 mg/kg, iv and 10 mg/kg, po; format: ADME, organism-based; conditions: in vivo, read-out: beta t1/2 (converted)
[12] = Rattus norvegicus, po, read-out: MED

What does the source list for COc1cc(C(F)(F)F)cc2c1nnc1c(C)nc(-c3ccncc3C)n12?
bioavailability [1]: 53%; AUC [2]: 1600 ng·h/mL; Activity (Rattus norvegicus [3]): 40.5%; minimal effective dose (Rattus norvegicus [3]; [12]): 0.1 mg/kg; AUC [4]: 622 ng·h/mL; IC50 (Phosphodiesterase 4): > 10000 nM; clearance [5]: 5 mL/min/kg; Activity (Rattus norvegicus [6]): Active; ID30 (Rattus norvegicus [7]): 0.123 mg/kg; ED50 (Rattus norvegicus [7]; Rattus norvegicus, Sprague-Dawley, po, read-out: ID50 (the source's name)): 0.204 mg/kg; IC50 (Phosphodiesterase 6): 1790 nM; Vd [8]: 1.3 L/kg; Activity (Rattus norvegicus [9]): 18.4%; minimal effective dose (Rattus norvegicus [9]; [12]): 0.1 mg/kg; pIC50 [10]: 5.64; IC50 (Phosphodiesterase 3): > 10000 nM; half-life [11]: 4.5 h
